Results: patent publication US20260223853A1, “PESTICIDALLY ACTIVE HETEROCYCLIC DERIVATIVES WITH SULFUR CONTAINING SUBSTITUENTS” (SYNGENTA CROP PROTECTION AG, priority 2023, published 2026)

Tests used:
Format in all cases: in vivo
[1] = test system: Chilo suppressalis (Striped Rice Stemborer); assay: Example B1: Activity against Chilo suppressalis (striped rice stemborer), artificial diet, L2 larvae; conditions: 144 h, application rate of 200 ppm, 6 days after infestation, in comparison to untreated samples, read-out: control (at least one of mortality, anti-feedant effect, growth inhibition)
Protocol: Example B1: Activity Against Chilo suppressalis (Striped Rice Stemborer)
24-well microtiter plates with artificial diet were treated with aqueous test solutions prepared from 10′000 ppm DMSO stock solutions by pipetting. After drying, the plates were infested with L2 larvae (6-8 per well). The samples were assessed for mortality, anti-feeding effect, and growth inhibition in comparison to untreated samples 6 days after infestation. Control of Chilo suppressalis by a test sample is given when at least one of the categories mortality, anti-feedant effect, and growth inhibition is higher than the untreated sample.

[2] = test system: Diabrotica balteata (Corn Root Worm); assay: Example B2: Activity against Diabrotica balteata (corn root worm), maize sprouts, L2 larvae; conditions: 96 h, application rate of 200 ppm, 4 days after infestation, in comparison to untreated samples, read-out: effect in at least one of the two categories (mortality or growth inhibition)
Protocol: Example B2: Activity Against Diabrotica balteata (Corn Root Worm)
Maize sprouts placed onto an agar layer in 24-well microtiter plates were treated with aqueous test solutions prepared from 10′000 ppm DMSO stock solutions by spraying. After drying, the plates were infested with L2 larvae (6 to 10 per well). The samples were assessed for mortality and growth inhibition in comparison to untreated samples 4 days after infestation.

[3] = test system: Euschistus heros (Neotropical Brown Stink Bug); assay: Example B3: Activity against Euschistus heros (neotropical brown stink bug), soybean leaves, N2 nymphs; conditions: 120 h, application rate of 200 ppm, 5 days after infestation, in comparison to untreated samples, read-out: effect in at least one of the two categories (mortality or growth inhibition)
Protocol: Example B3: Activity Against Euschistus heros (Neotropical Brown Stink Bug)
Soybean leaves on agar in 24-well microtiter plates were sprayed with aqueous test solutions prepared from 10′000 ppm DMSO stock solutions. After drying the leaves were infested with N2 nymphs. The samples were assessed for mortality and growth inhibition in comparison to untreated samples 5 days after infestation.

[4] = test system: Myzus persicae (Green peach aphid); assay: Example B4: Activity against Myzus persicae (green peach aphid), feeding/contact activity, sunflower leaf discs; conditions: foliar, 144 h, application rate of 200 ppm, 6 days after infestation
Protocol: Example B4: Activity against Myzus persicae (Green peach aphid) Feeding/Contact activity Sunflower leaf discs were placed onto agar in a 24-well microtiter plate and sprayed with aqueous test solutions prepared from 10′000 ppm DMSO stock solutions. After drying, the leaf discs were infested with an aphid population of mixed ages. The samples were assessed for mortality 6 days after infestation.

[5] = test system: Plutella xylostella (Diamond Back Moth); assay: Example B6: Activity against Plutella xylostella (diamond back moth), artificial diet, eggs; conditions: 192 h, application rate of 200 ppm, 8 days after infestation, in comparison to untreated samples, read-out: effect in at least one of the two categories (mortality or growth inhibition)
Protocol: Example B6: Activity Against Plutella xylostella (Diamond Back Moth)
24-well microtiter plates with artificial diet were treated with aqueous test solutions prepared from 10′000 ppm DMSO stock solutions by pipetting. After drying, Plutella eggs were pipetted through a plastic stencil onto a gel blotting paper and the plate was closed with it. The samples were assessed for mortality and growth inhibition in comparison to untreated samples 8 days after infestation. The following compounds gave an effect of at least 80% in at least one of the two categories (mortality or growth inhibition) at an application rate of 200 ppm: P.1, P.2, P.3, P.4, P.5, P.6, P.7, P.8, P.9, P.10, P.11, P.12.

[6] = test system: Myzus persicae (Green peach aphid); assay: Example B5: Activity against Myzus persicae (green peach aphid), systemic activity, pea seedlings; conditions: 144 h, test rate of 24 ppm, 6 days after placing seedlings into test solutions
Protocol: Example B5: Activity Against Myzus persicae (Green Peach Aphid) Systemic Activity
Roots of pea seedlings infested with an aphid population of mixed ages were placed directly into aqueous test solutions prepared from 10′000 DMSO stock solutions. The samples were assessed for mortality 6 days after placing seedlings into test solutions.

[7] = test system: Spodoptera littoralis (Egyptian Cotton Leaf Worm); assay: Example B7: Activity against Spodoptera littoralis (Egyptian cotton leaf worm), cotton leaf discs, L1 larvae; conditions: foliar, 72 h, application rate of 200 ppm, 3 days after infestation, in comparison to untreated samples, read-out: control (at least one of mortality, anti-feedant effect, growth inhibition)
Protocol: Example B7: Activity Against Spodoptera littoralis (Egyptian Cotton Leaf Worm)
Cotton leaf discs were placed onto agar in 24-well microtiter plates and sprayed with aqueous test solutions prepared from 10′000 ppm DMSO stock solutions. After drying the leaf discs were infested with five L1 larvae. The samples were assessed for mortality, anti-feeding effect, and growth inhibition in comparison to untreated samples 3 days after infestation. Control of Spodoptera littoralis by a test sample is given when at least one of the categories mortality, anti-feedant effect, and growth inhibition is higher than the untreated sample.

CCS(=O)(=O)c1cc(C2(C#N)CC2)cnc1N1CCc2cc(C(F)(F)F)ccc2C1=O [P.2, 1-[5-ethylsulfonyl-6-[1-oxo-6-(trifluoromethyl)-3,4-dihydroisoquinolin-2-yl]-3-pyridyl]cyclopropane-carbonitrile]
≥ 80%: percent control (mortality, anti-feedant effect or growth inhibition) at 200 ppm [1] | percent effect (mortality or growth inhibition) at 200 ppm [2] | percent effect (mortality or growth inhibition) at 200 ppm [3] | mortality at 200 ppm [4] | percent effect (mortality or growth inhibition) at 200 ppm [5]

CCS(=O)(=O)c1cc(C2(C#N)CC2)cnc1N1CCc2nc(C(F)(F)F)ccc2C1=O [P.3, 1-[5-ethylsulfonyl-6-[5-oxo-2-(trifluoromethyl)-7,8-dihydro-1,6-naphthyridin-6-yl]-3-pyridyl] cyclopropane-carbonitrile]
≥ 80%: percent control (mortality, anti-feedant effect or growth inhibition) at 200 ppm [1] | percent effect (mortality or growth inhibition) at 200 ppm [2] | percent effect (mortality or growth inhibition) at 200 ppm [3] | mortality at 200 ppm [4] | mortality at 24 ppm [6] | percent effect (mortality or growth inhibition) at 200 ppm [5] | control at 200 ppm [7]

CCS(=O)(=O)c1cc(C2(C#N)CC2)cnc1N1CCc2nc(OCC(F)(F)C(F)(F)F)ccc2C1=O [P.12, 1-[5-ethylsulfonyl-6-[5-oxo-2-(2,2,3,3,3-pentafluoropropoxy)-7,8-dihydro-1,6-naphthyridin-6-yl]-3-pyridyl]cyclopropane-carbonitrile]
≥ 80%: percent control (mortality, anti-feedant effect or growth inhibition) at 200 ppm [1] | percent effect (mortality or growth inhibition) at 200 ppm [2] | mortality at 200 ppm [4] | percent effect (mortality or growth inhibition) at 200 ppm [5] | control at 200 ppm [7]

CCS(=O)(=O)c1c(N2CCc3nc(C(F)(F)F)ccc3C2=O)nc2cc(C(F)(F)F)ccn12 [P.1, 6-[3-ethylsulfonyl-7-(trifluoromethyl)imidazo[1,2-a]pyridin-2-yl]-2-(trifluoromethyl)-7,8-dihydro-1,6-naphthyridin-5-one]
≥ 80%: percent control (mortality, anti-feedant effect or growth inhibition) at 200 ppm [1] | percent effect (mortality or growth inhibition) at 200 ppm [2] | mortality at 200 ppm [4] | percent effect (mortality or growth inhibition) at 200 ppm [5] | control at 200 ppm [7]

CCS(=O)(=O)c1cc(C2(C#N)CC2)cnc1N1CCc2nc(Cl)ccc2C1=O [P.8, 1-[6-(2-chloro-5-oxo-7,8-dihydro-1,6-naphthyridin-6-yl)-5-ethylsulfonyl-3-pyridyl]cyclopropane-carbonitrile]
≥ 80%: mortality at 24 ppm [6] | percent effect (mortality or growth inhibition) at 200 ppm [5] | control at 200 ppm [7]

CCS(=O)(=O)c1cc(C2(C#N)CC2)cnc1N1CCc2nc(OCC(Cl)(Cl)Cl)ccc2C1=O [P.11, 1-[5-ethylsulfonyl-6-[5-oxo-2-(2,2,2-trichloroethoxy)-7,8-dihydro-1,6-naphthyridin-6-yl]-3-pyridyl]cyclopropane-carbonitrile]
≥ 80%: percent control (mortality, anti-feedant effect or growth inhibition) at 200 ppm [1] | percent effect (mortality or growth inhibition) at 200 ppm [5] | control at 200 ppm [7]

CCS(=O)(=O)c1cc(C2(C#N)CC2)cnc1N1CCc2nc(OCC(F)(F)Cl)ccc2C1=O [P.9, 1-[6-[2-(2-chloro-2,2-difluoro-ethoxy)-5-oxo-7,8-dihydro-1,6-naphthyridin-6-yl]-5-ethylsulfonyl-3-pyridyl]cyclopropane-carbonitrile]
≥ 80%: percent control (mortality, anti-feedant effect or growth inhibition) at 200 ppm [1] | percent effect (mortality or growth inhibition) at 200 ppm [2] | percent effect (mortality or growth inhibition) at 200 ppm [3] | mortality at 200 ppm [4] | percent effect (mortality or growth inhibition) at 200 ppm [5] | control at 200 ppm [7]

CCS(=O)(=O)c1cc(C2(C#N)CC2)cnc1N1CCc2nc(C(F)(F)C(F)(F)F)ccc2C1=O [P.5, 1-[5-ethylsulfonyl-6-[5-oxo-2-(1,1,2,2,2-pentafluoroethyl)-7,8-dihydro-1,6-naphthyridin-6-yl]-3-pyridyl] cyclopropane-carbonitrile]
≥ 80%: percent control (mortality, anti-feedant effect or growth inhibition) at 200 ppm [1] | percent effect (mortality or growth inhibition) at 200 ppm [2] | percent effect (mortality or growth inhibition) at 200 ppm [3] | percent effect (mortality or growth inhibition) at 200 ppm [5] | control at 200 ppm [7]

CCS(=O)(=O)c1cc(C2(C#N)CC2)cnc1N1CCc2nc(OCC(Cl)(Cl)C(F)(F)F)ccc2C1=O [P.13, 1-[6-[2-(2,2-dichloro-3,3,3-trifluoro-propoxy)-5-oxo-7,8-dihydro-1,6-naphthyridin-6-yl]-5-ethylsulfonyl-3-pyridyl]cyclopropane-carbonitrile]
≥ 80%: percent control (mortality, anti-feedant effect or growth inhibition) at 200 ppm [1] | control at 200 ppm [7]

CCS(=O)(=O)c1cc(C2(C#N)CC2)cnc1N1CCc2c(ccc3c2OC(F)(F)O3)C1=O [P.6, 1-[6-(2,2-difluoro-6-oxo-8,9-dihydro-[1,3]dioxolo[4,5-f]isoquinolin-7-yl)-5-ethylsulfonyl-3-pyridyl]cyclopropane-carbonitrile]
≥ 80%: percent control (mortality, anti-feedant effect or growth inhibition) at 200 ppm [1] | percent effect (mortality or growth inhibition) at 200 ppm [2] | percent effect (mortality or growth inhibition) at 200 ppm [3] | mortality at 200 ppm [4] | percent effect (mortality or growth inhibition) at 200 ppm [5] | control at 200 ppm [7]

CCS(=O)(=O)c1cc(C2(C#N)CC2)cnc1N1CCc2cc(OC(F)(F)F)ccc2C1=O [P.4, 1-[5-ethylsulfonyl-6-[1-oxo-6-(trifluoromethoxy)-3,4-dihydroisoquinolin-2-yl]-3-pyridyl] cyclopropane-carbonitrile]
≥ 80%: percent control (mortality, anti-feedant effect or growth inhibition) at 200 ppm [1] | percent effect (mortality or growth inhibition) at 200 ppm [2] | percent effect (mortality or growth inhibition) at 200 ppm [3] | mortality at 200 ppm [4] | percent effect (mortality or growth inhibition) at 200 ppm [5] | control at 200 ppm [7]

CCS(=O)(=O)c1cc(C2(C#N)CC2)cnc1N1CCc2nc(OCC(F)(F)C(F)F)ccc2C1=O [P.10, 1-[5-ethylsulfonyl-6-[5-oxo-2-(2,2,3,3-tetrafluoropropoxy)-7,8-dihydro-1,6-naphthyridin-6-yl]-3-pyridyl] cyclopropane-carbonitrile]
≥ 80%: percent control (mortality, anti-feedant effect or growth inhibition) at 200 ppm [1] | percent effect (mortality or growth inhibition) at 200 ppm [2] | mortality at 200 ppm [4] | percent effect (mortality or growth inhibition) at 200 ppm [5] | control at 200 ppm [7]

CCS(=O)(=O)c1cc(C2(C#N)CC2)cnc1N1CCc2nc(OC3CC3)ccc2C1=O [P.7, 1-[6-[2-(cyclopropoxy)-5-oxo-7,8-dihydro-1,6-naphthyridin-6-yl]-5-ethylsulfonyl-3-pyridyl]cyclopropane-carbonitrile]
≥ 80%: percent control (mortality, anti-feedant effect or growth inhibition) at 200 ppm [1] | percent effect (mortality or growth inhibition) at 200 ppm [2] | mortality at 200 ppm [4] | mortality at 24 ppm [6] | percent effect (mortality or growth inhibition) at 200 ppm [5] | control at 200 ppm [7]
